According to article PMC5099578, “A structural and functional study on the 2-C-methyl-D-erythritol-4-phosphate cytidyltransferase (IspD) from Bacillus subtilis” (Scientific Reports, 2016):

Target: T1, BsIspD (Bacillus subtilis, UniProt Q06755)
T1 construct: gene ispD; full length (699 bp gene, 232 residues built); pGEX-6P-1, expressed in E. coli, GST tag cut with PreScission protease; homodimer
Assay: X-ray crystal structure of the complex, […] Å
Assay type: binding
Conditions: co-crystallised with 10 mM CTP and 10 mM MgCl2; active site, one CTP and one Mg2+ in molecule D only

T1 sequence (Q06755 whole entry): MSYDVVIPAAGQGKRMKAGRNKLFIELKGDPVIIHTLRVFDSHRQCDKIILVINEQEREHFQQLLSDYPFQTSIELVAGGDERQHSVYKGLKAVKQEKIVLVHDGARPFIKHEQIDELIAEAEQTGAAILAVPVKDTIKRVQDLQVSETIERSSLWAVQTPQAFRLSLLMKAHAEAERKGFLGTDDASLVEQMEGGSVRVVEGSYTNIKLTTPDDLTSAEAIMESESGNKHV

Nc1ccn([C@@H]2O[C@H](COP(=O)(O)OP(=O)(O)OP(=O)(O)O)[C@@H](O)[C@H]2O)c(=O)n1 [CTP] was tested, and the “X-ray crystal structure of the complex, 1.90 Å” value was “One CTP molecule and one magnesium ion were observed binding to the molecule D”.
